“Also recorded” adds a separate entry of the source.

Data on 1 compound can be found in US20110091375A1, “USE OF THE COMBINATION COMPRISING TEMOZOLOMIDE AND TNF-ALPHA FOR TREATING GLIOBLASTOMA” (THE UNIVERSITY OF CHICAGO, priority 2004, published 2011).

In test [1] the test system is U87 hindlimb xenografts. Put plainly: TNFα induction in vivo in hindlimb xenografts. More on the design: species or system nude mice. The protocol: U87 cells (5×10^6) in […] were injected subcutaneously (sc) into the right hindlimb of nude mice. When tumors reached an average size of 200 mm^3 (length×width×thickness/2), the tumor-bearing mice were randomized into 4 groups: 1. Untreated Control (UTC); 2. Ad.Egr-TNF alone; 3. TMZ alone; 4. Ad.Egr-TNF and TMZ. Ad.Egr-TNF was injected intratumorally (IT) at a dose of 2×10^8 particle units (pu) each day. Two doses of TMZ were given: 2.5 mg/kg/day and 5 mg/kg/day by intraperitoneal (IP) injection 3 h after vector. Four consecutive daily IT and IP injections were given, control animals received IT and IP serum free medium (SFM). Animals were euthanized on day 2 and 4 (i.e., 48 h and 96 h after treatment initiation), tumors harvested, snap-frozen in liquid nitrogen and homogenized in RIPA buffer (150 mM NaCl, 10 mM Tris at pH 7.5, 5 mM EDTA at pH 7.5, […], 1 μg/mL leupeptin, and 2 μg/mL aprotinin). Protein was isolated and concentration measured using Protein Assay reagent (Bio-Rad Laboratories, Hercules, Calif.). TNFα levels in the supernatants were measured as described above.

For test [2], the system named is U87 cells. Description: U87 cell viability (Trypan Blue dye exclusion, MTS). Type of test: cell-based, human. The following applies: 10 ng/mL TNFα and/or 100 μM TMZ. Here is the method:
Trypan Blue dye exclusion method was employed. 10^4 U87 cells were plated and incubated at 37° C. overnight. Subsequently, the cells were contacted with media containing TNFα (10 ng/mL) and/or TMZ (100 μM), incubated for 3 h, and washed. […] All of the studies were performed in triplicate.

Test [3] has as its system U87 hindlimb xenografts. Put plainly: Hindlimb glioma xenograft tumor growth. The class given is in vivo, nude mice. The conditions noted are these: 30 days following treatment, second hindlimb study. The protocol:
Hindlimb Studies: U87 hindlimb xenografts were established as described above in Example 4. In one study, mice were randomized into four groups as described in Example 4 and treatment initiated (day 0). Ad.Egr-TNF (2×10^8 pu) was injected IT twice a week for 4 total injections, and 5 mg/kg TMZ was given IP 3 h after each vector injection for a total of 20 mg/kg. The dose of TMZ used was approximately 0.2 LD10 and was chosen to have modest anti-tumor effect but to not be curative based on previous studies (Friedman, H. S. et al. (1995) Cancer Res 55(13):2853-2857) and data from our lab showing LD50 for IP TMZ to be approximately 500 mg/kg. Tumor volume was measured every 2-3 days. Fractional tumor volume (V/V0 where V0=volume on day 0) was calculated and plotted.
In a second study, tumor-bearing mice were randomized into eight treatment groups: untreated control (UTC); intratumoral (IT) Ad.Egr-TNF alone; intraperitoneal (IP) TMZ alone; IR alone; Ad.Egr-TNF and TMZ; Ad.Egr-TNF and IR; TMZ and IR; and Ad.Egr-TNF, TMZ and IR. Ad.Egr-TNF was administered IT at a dose of 2×10^8 pu/10 μL twice a week for 2 weeks, IP TMZ was given 3 h after vector at 5 mg/kg to a total of 20 mg/kg. […] Xenografts were measured twice a week using calipers, tumor volume was calculated, and fractional tumor volumes (V/V0 where V0=volume on day 0) were plotted.

Test [4] deals with U87 cells. Put plainly: Flow cytometric analysis of apoptosis (fractional DNA content, annexin V binding). Type of test: cell-based, human. The conditions noted are these: fractional DNA content, TMZ 100 μM. The protocol: Fractional DNA content: U87 cells (10^5) were plated overnight at 37° C. with 5% CO2. The cells were then treated with TNFα (10 ng/mL) and/or TMZ (100 μM). At 72 h the cells were washed in PBS and fixed in ice-cold 70% (v/v) ethanol. The cells were washed twice and incubated in RNase (1 mg/mL) for 30 m at 37° C., then incubated in propidium iodide (PI) solution (100 ug/mL) for […] at 4° C. Flow cytometric analysis was performed on a FACSort instrument (Becton Dickinson Immunocytometry Systems, San Jose, Calif.), and the data were analyzed using the CellQuest software (Becton Dickinson).
Annexin V binding (van Engeland, M. et al. (1998) Cytometry 31(1):1-9): At 72 h cells were washed in PBS and incubated in the dark for 15 m with binding buffer containing 5 μl of Annexin V-FITC and 5 μl of PI (Annexin V-FITC apoptosis detection kit II). The data was analyzed by Flowjo analysis software (Tree Star Inc., Ashland, Oreg.).
Cells were either un-transfected or co-transfected with pRC-CMV-p65 or pRC-CMV in the presence of a GFP plasmid at a ratio of 4:1. Under these conditions, cells expressing GFP also expressed the co-transfected plasmid (Tang, F. et al. (2002) Mol Cell Biol 22:8571-8579). Cells were then left untreated or treated as described in the figure legends. At 72 h cells were washed in PBS and incubated in the dark for 15 m with binding buffer containing 5 μl of Annexin V-FITC and 5 μl of Propidium iodide (PI). In transfected cells, annexin V binding was assessed in GFP positive cells. Data was analyzed by Flowjo analysis software (Tree Star Inc., Ashland, Oreg., USA) as described in U.S. Provisional Application No. 60/604,251 (Yamini, B. et al. (2004) Cancer Res 64:6381-6384).
For orientation: In flow cytometry, cells or beads pass a laser one at a time.

Test [5] has as its system NF-κB in U87 glioma cells. Put plainly: NF-κB-responsive luciferase reporter assay, U87. Type of test: cell-based, human. Here is the method:
U87 cells (5×10^3) were plated overnight and subsequently co-transfected with Ig-κB-Luc (or pE425 GL3) and the Renilla reniformis expression vector, pRL-TK, to normalize transfection efficiency, at a ratio of 10:1 using SuperFectin transfection kit (Qiagen, Valencia, Calif., USA). Twenty-four hours after transfection, the cells were pretreated with TMZ (100 μM) for 16 h, then treated with TNFα (10 ng/mL). Five hours later NF-κB (or Egr-1) and Renilla luciferase activity were measured with the Dual-Luciferase reporter assay system (Promega Corp., Madison, Wis., USA). Relative luciferase was calculated as the ratio of firefly luminescence/Renilla luminescence for each sample.

Test [6] deals with NF-κB in BxPC-3 pancreatic cancer cells. Put plainly: NF-κB-responsive luciferase reporter assay, BxPC-3. The class given is cell-based, human. (A reporter such as luciferase makes a cellular process visible.)
The next test relates to NF-κB in glioma cells. Description: IR- and TNFα-induced NF-κB activity and nuclear translocation. Type of test: cell-based. The conditions noted are these: co-treatment with TNFα and IR.

Consider `Cn1nnc2c(C(N)=O)ncn2c1=O` [TMZ, temozolomide], for which the “TNF detection in vivo” value with U87 hindlimb xenografts [1] was “No TNF was detected”. Also, the “effect on U87 cell viability” value in the test on U87 cells [2] was “Minimal effects”. For the same compound, in the test with U87 hindlimb xenografts [3], the “animals with complete disappearance of palpable tumor” value is listed as 1/10. Besides, the cell cycle distribution entry in the test on U87 cells [4] is on record as “increase in the percentage of cells in G2/M phase”. The “TNFα-induced NF-κB transcriptional activity” value was “dose dependent inhibition; also recorded: completely inhibited” in test [5] (U87, TMZ pre-treatment) and “activated” in test [6]. The “transcriptional activity of NF-κB, TMZ used alone” value in test [5] (glioma cells, no TNFα) is given as “slightly increases”. Also, the “NF-κB transcriptional activity and nuclear translocation increased by TNFα and IR” value with NF-κB in glioma cells is reported as “inhibited”.
